Earlier results as cited in US20100137357A1, “COMPOSITIONS AND METHODS FOR HYPERHIDROSIS” (priority 2008, published 2010).

Test system: serous and seromucous glands
Conditions: humans, applied locally to the nasal mucosa

CC(C)[N+]1(C)[C@@H]2CC[C@H]1CC(OC(=O)C(CO)c1ccccc1)C2.[Br-] (stereo partly shown) [ipratropium bromide]
secretions from the serous and seromucous glands: inhibits secretions
